Here are results for 5 compounds from US4265886A, “Spiroketalins and their applications” (Roecar Holdings (Netherlands Antilles (NV), priority 1978, dated 1981).

As usually defined, the solubility is the concentration that dissolves in the medium under given conditions.

For data set [1], the system named is erysipelas-induced arthritis (corneal lesions). Put plainly: erysipelas-induced arthritis in the rat: corneal lesions (opaquacy). The format is in vivo, rat (male Wistar). The conditions noted are these: for CORNEAL LESIONS Degree of severity: 3×10 mg/kg per day, 5× per week, control 2,34; for CORNEAL LESIONS Present in % of rats, day 1: control 0; for CORNEAL LESIONS Present in % of rats, day 6 / CORNEAL LESIONS Present in % of rats, day 8 / CORNEAL LESIONS Present in % of rats, day 12 / CORNEAL LESIONS Present in % of rats, day 15 / CORNEAL LESIONS Present in % of rats, day 19 / CORNEAL LESIONS Present in % of rats, day 20: control 100. Here is the method:
(§1) The investigation was carried out according to Schulze et al (17 in Betr. Path., 1975, 154, 1-26 and 27-51). Erysipelas arthritis is reproducible in nearly 100% of the rats given a single subcutaneous injection of E. insidiosa. Erysipelas arthritis always afflicts several joints with the same intensity in both major and minor limb joints, besides the coagulopathy and the pathological changes produced in the cardio-vascular system. Proliferating processes occur after 3 months in all surviving animals subjected to experimental erysipelas arthritis.
(§2) In order to test the spiroketalins of this invention the following parameters of the erysepilas arthritis model were used to evaluate their activities:
Inflammation opaquacy appears in the cornea around the 8th day.
(§3) Male Wistar rats between 155-185 g were used for these trials. The animals, kept in single cages, received a standard rat diet (Ssniff R) and water ad libitum. Room temperature was kept at 22° C., and the relative humidity varied between 50-60%. Daily illumination lasted for 12 hours. The animals had been acclimatized for 10 days prior to the commencement of the investigation.
(§4) An erysopelothrix insidiosa serotype B-strain T28 was used to challenge the animals and a single 2 ml dose (ca 100-200 million germs) was administered subcutaneously. The examined spiroketalins were suspended in sterile physiological saline and administered at the rate of 3×10 mg/kg per day. Treatment continued from the day of challenge, either to the end of the trial or the death of an animal, at the rate of 5×per week.

Data set [2] deals with Sprague-Dawley rats. Put plainly: 100 day feeding study, 0,1% in standard laboratory chow. The format is in vivo, rat (male Sprague-Dawley). The conditions noted are these: for mortality: 100 day observation period. An excerpt:
(b) Standard laboratory chow was thoroughly mixed with 0,1% diosgenyl glucoside or hecogenyl glucoside and the mixtures were fed to groups of 20 young male Sprague-Dawley rats weighing approximately 150 g. […] Ten rats from each group were autopsied and the organs and some body tissues examined by macroscopic and microscopic techniques.

Data set [3] deals with erysipelas-induced arthritis (aortic thrombi). Put plainly: erysipelas-induced arthritis in the rat: aortic thrombi. The format is in vivo, rat (male Wistar). As to conditions: 3×10 mg/kg per day, 5× per week; for AORTIC THROMBI Present in % of rats: control 90; for AORTIC THROMBI Degree of severity: key 0=No change, 1=Very slight, 2=Slight to medium, 3=Medium to severe, 4=Severe changes, control 2,60 (± 1,35). On the procedure: as §1, §2
Fibrin-rich thrombi develop on aorta intima between the 6th and 11th day. The largest spread extended area can be observed around the 8th day.
as §3, §4
The parameters for aorta thrombi have been evaluated according to the following key originally described by Schulz et al. Beitrag. Path., 154, 1-26 and 27-51, 1975.
KEY FOR CLINICAL AORTA THROMBI FINDINGS
2=Slight to medium changes
3=Medium to severe changes

In data set [4] the test system is yeast-induced hind paw oedema. The data set can be described thus: yeast-induced acute paw oedema in rats. The format is in vivo, rat. As to conditions: 500-1000 mg/kg orally or 50-100 mg/kg intraperitoneally, 24 hours before 2% yeast suspension. Here is the method:
The oral effectiveness of an anti-inflammatory agent is readily shown by administering it to animals (e.g. rats) either orally or parenterally before one of their hind paws is injected with a solution or suspension of an inflammation inducing substance such as kaolin, egg white, formaldehyde, carageenin or yeast. […] Distinct reductions in the acute oedema formation of between 10-40% were observed depending on the dose and route of administration. In order to achieve such reduction with the glucosides of diosgenin, hecogenin and tigogenin doses of 500-1000 mg/kg body mass orally or 50-100 mg/kg intraperitoneally had been administered, 24 hours before the animals were challenged with fresh 2% yeast suspension in physiological saline.

The subject of another data set is haemolysis. As to conditions: cited from earlier work.
The test system of data set [5] is Sprague-Dawley rats. Put plainly: single oral dose animal toxicity, 14 day observation. It counts as in vivo, rat (male Sprague-Dawley). As to conditions: single oral doses of 125,0; 312,5; 625,0 and 1250 mg/kg. Here is the method:
Individually housed groups of ten male Sprague-Dawley rats were treated orally with single doses of hecogenin 3-β-D-glucoside or diosgenin 3β-D-glucoside. The poorly water soluble test substances were made up in an aqueous Tylose^R dispersion for homogeneity.
A suitable concentration which allowed the administration of the relevant dose at the rate of 1,0 ml/100 g body weight was prepared immediately before use. Doses ranging from 125 mg/kg to 1250 mg/kg of the agents were tested. The observation period was 14 days after which the animals were sacrificed and a macroscopic examination of some tissues was carried out. Food and water was offered ad libitum.

The next data set is described as follows: physchem. As to conditions: water.
The test system of data set [6] is rats, rabbits and chickens. The conditions noted are these: cited from earlier work.
For data set [7] the following is noted: rats, rabbits and chickens; cited from earlier work.

Converted amounts (≈) assume the structure as drawn. Like-named read-outs stand apart in the source and are kept apart here.

`C[C@@H]1CC[C@@]2(OC1)O[C@H]1C[C@H]3[C@@H]4CC=C5C[C@@H](O[C@@H]6O[C@H](CO)[C@@H](O)[C@H](O)[C@H]6O)CC[C@]5(C)[C@H]4CC[C@]3(C)[C@H]1[C@@H]2C` [Diosgenyl Glucoside, diosgenyl β-D-glucoside]: in data set [1], the “CORNEAL LESIONS Degree of severity” value was 1,05; the “CORNEAL LESIONS Present in % of rats, day 1” value worked out at 0%; the “CORNEAL LESIONS Present in % of rats, day 6” value was 85,7%; the “CORNEAL LESIONS Present in % of rats, day 8” value stood at 100%. Besides, in [1], the “CORNEAL LESIONS Present in % of rats, day 12” value turned out to be 100%; the “CORNEAL LESIONS Present in % of rats, day 15” value is reported as 50%; the “CORNEAL LESIONS Present in % of rats, day 19” value came out at 25%; the “CORNEAL LESIONS Present in % of rats, day 20” value was determined as 0%. In addition, the mortality entry with Sprague-Dawley rats [2] (0,1% in chow) is on record as “No mortality occurred”. Also, the drug-related pathological changes entry with Sprague-Dawley rats [2] (rat, in vivo) is reported as “No drug-related pathological changes were detected in any tissues”. This compound also showed a solubility in the data set “water solubility” (25° C.) of about 5 µg/mL (≈ 8.67 µM). Moreover, the solubility in the data set “water solubility” (room temperature, colloidal solution) is 5 µg/mL (≈ 8.67 µM). Also, in data set [3], the “AORTIC THROMBI Present in % of rats” value came to 44% and the “AORTIC THROMBI Degree of severity” value is listed as 1,33 (± 1,66). In addition, in data set [4], the “reduction in acute oedema formation” value is 10-40%. In addition, the “in vitro haemolytic effects” value in the data set with haemolysis (in vitro, reference (6)) is “without showing the usual in vitro haemolytic effects”.
Consider `C[C@@H]1CC[C@@]2(OC1)O[C@H]1C[C@H]3[C@@H]4CC[C@H]5C[C@@H](O[C@@H]6O[C@H](CO)[C@@H](O)[C@H](O)[C@H]6O)CC[C@]5(C)[C@H]4CC(=O)[C@]3(C)[C@H]1[C@@H]2C` [Hecogenyl Glucoside, hecogenyl β-D-glucoside], for which, in data set [1], the “CORNEAL LESIONS Degree of severity” value is 0,89; the “CORNEAL LESIONS Present in % of rats, day 1” value was determined as 0%; the “CORNEAL LESIONS Present in % of rats, day 6” value is on record as 87,5%; the “CORNEAL LESIONS Present in % of rats, day 8” value is reported as 100%. Also, in data set [1], the “CORNEAL LESIONS Present in % of rats, day 12” value was determined as 100%; the “CORNEAL LESIONS Present in % of rats, day 15” value is 100%; the “CORNEAL LESIONS Present in % of rats, day 19” value came to 20%; the “CORNEAL LESIONS Present in % of rats, day 20” value is 0%. Moreover, the mortality entry in the data set with Sprague-Dawley rats [2] (0,1% in chow) is listed as “No mortality occurred”. Besides, the drug-related pathological changes result in the data set with Sprague-Dawley rats [2] (0,1% in chow, autopsy, macroscopic and microscopic) is reported as “No drug-related pathological changes were detected in any tissues”. Besides, in the data set on Sprague-Dawley rats [5], the tolerability result is given as “well tolerated”. For the same compound, in data set [3], the “AORTIC THROMBI Present in % of rats” value was 50% and the “AORTIC THROMBI Degree of severity” value is recorded as 1,38 (± 1,51). Also, the “reduction in acute oedema formation” value in [4] was 10-40%. For the same compound, the “in vitro haemolytic effects” value in the data set on haemolysis was “without showing the usual in vitro haemolytic effects”. The same compound gave a solubility in “physchem” of about 5 µg/mL (≈ 8.43 µM).
As for `CC[C@H](CC[C@@H](C)[C@H]1CC[C@H]2[C@@H]3CC=C4C[C@@H](O[C@@H]5O[C@H](CO)[C@@H](O)[C@H](O)[C@H]5O)CC[C@]4(C)[C@H]3CC[C@]12C)C(C)C` [Sitosteryl-β-D-Glucoside, reference compound], in data set [1], the “CORNEAL LESIONS Degree of severity” value is listed as 1,20; the “CORNEAL LESIONS Present in % of rats, day 1” value worked out at 20%; the “CORNEAL LESIONS Present in % of rats, day 6” value is 90%; the “CORNEAL LESIONS Present in % of rats, day 8” value is 100%. Also, in data set [1], the “CORNEAL LESIONS Present in % of rats, day 12” value is 100%; the “CORNEAL LESIONS Present in % of rats, day 15” value came to 17%; the “CORNEAL LESIONS Present in % of rats, day 19” value turned out to be 25%; the “CORNEAL LESIONS Present in % of rats, day 20” value turned out to be 0%. Moreover, in data set [3], the “AORTIC THROMBI Present in % of rats” value stood at 70% and the “AORTIC THROMBI Degree of severity” value is 2,00 (± 1,63).
Turning to `C[C@@H]1CC[C@@]2(OC1)O[C@H]1C[C@H]3[C@@H]4CC[C@H]5C[C@@H](O[C@@H]6O[C@H](CO)[C@@H](O)[C@H](O)[C@H]6O)CC[C@]5(C)[C@H]4CC[C@]3(C)[C@H]1[C@@H]2C` [Tigogenyl Glucoside, tigogenyl β-D-glucoside], the “reduction in acute oedema formation” value in [4] is recorded as 10-40%.
On to `C[C@@H]1CC[C@@]2(OC1)O[C@H]1C[C@H]3[C@@H]4CC=C5C[C@@H](O)CC[C@]5(C)[C@H]4CC[C@]3(C)[C@H]1[C@@H]2C` [diosgenin], for which the toxicity result in [6] was “non-toxic”. The serum cholesterol levels result in [7] is “lowers the serum cholesterol levels”.
